Data: paper PMC11949107, “Polyunsaturated fatty acids and their endocannabinoid-related metabolites activity at human TRPV1 and TRPA1 ion channels expressed in HEK-293 cells” (PeerJ, 2025)
“And” between values parts separate entries of the source, which are not always exact repeats. Equal values may be shown once.

Experiments:
HEK-293 EV cells = experiment: Calcium 5 dye [Ca]i assay in HEK-293 empty vector (EV) cells; type: cell-based, human; conditions: 10 µM; HEK-293 EV cells; percentage of predrug baseline
Protocol: (§1) The cells were incubated in a 5% CO2 humidified atmosphere at 37 °C. Upon reaching approximately 90% confluence in 75 cm^2 flasks, they were trypsinized and transferred to poly-D-lysine coated 96-well plates (Corning, Castle Hill, NSW, Australia) in L-15 medium supplemented with 1% FBS, 100 U penicillin and 100 µg streptomycin ml^−1 (1% P/S), and 15 mM glucose (80 µL volume per well). After an overnight incubation (maximum of 16 h) in humidified room air at 37 °C, TRPV1 and TRPA1 receptor expression was induced 4 h before experimentation by adding to each well 10 µL tetracycline solution to a final concentration of 1 µg ml^−1.
Intracellular calcium [Ca]i levels were assessed using the calcium 5 kit from Molecular Devices (# R8186, Sunnyvale, CA, USA) on a FlexStation 3 Microplate Reader (Molecular Devices, Sunnyvale, CA, USA). […] 90 µL of the dye were loaded into each well of the plate and incubated for 1 h before reading in the FlexStation 3 at 37 °C. […] After 1 min of baseline recording, 20 µL of the drug, dissolved in HBSS with 1% dimethyl sulfoxide (DMSO) (cat # D2650; Sigma-Aldrich, Melbourne, Australia) was added (final DMSO concentration was 0.1% in well).
(§2) The response to agonists was expressed as a percentage change from the average baseline measurement taken for 60s before adding drug. Changes in fluorescence resulting from the addition of solvent were subtracted before normalization to baseline. Concentration–response curves (CRC), Emax and EC50 values were determined using a three-parameter logistic equation (GraphPad Prism, San Diego, CA, USA). […] Potencies were expressed as pEC50, which is the negative log of EC50 in moles per litre (Molar). Where appropriate, unpaired Student’s t-test were used to compare the responses of individual compounds in different conditions, while a one-way ANOVA followed by Dunnett’s multiple comparisons test was used to assess potential differences in responses elicited by a range of compounds. P < 0.05 was considered statistically significant.

human TRPV1 = target: T1, human TRPV1 (Homo sapiens, UniProt Q8NER1); experiment: Calcium 5 dye [Ca]i assay in HEK-293 Flp-In T-REx cells expressing TRPV1 (agonist response); type: cell-based; conditions: for Elevation of [Ca]i in HEK-293 TRPV1 cells compared with HEK-293 EV cells / Change of Ca5 fluorescence, Mean ± SEM, TRPV1 (10 µM): 10 µM; for Change of Ca5 fluorescence, Mean ± SEM, TRPV1 (10 µM): HEK-293 TRPV1 cells, percentage of predrug baseline; for TRPV1 response, Mean± SEM (N): 30 µM, one-way ANOVA comparison with capsaicin 10 µM; for Change in Ca5 fluorescence, individual experiments (CRC raw data): TRPV1 cells
T1 construct: Life Technologies (cells); host or cells: Flp-In T-REx HEK-293
T1 sequence (Q8NER1 whole entry): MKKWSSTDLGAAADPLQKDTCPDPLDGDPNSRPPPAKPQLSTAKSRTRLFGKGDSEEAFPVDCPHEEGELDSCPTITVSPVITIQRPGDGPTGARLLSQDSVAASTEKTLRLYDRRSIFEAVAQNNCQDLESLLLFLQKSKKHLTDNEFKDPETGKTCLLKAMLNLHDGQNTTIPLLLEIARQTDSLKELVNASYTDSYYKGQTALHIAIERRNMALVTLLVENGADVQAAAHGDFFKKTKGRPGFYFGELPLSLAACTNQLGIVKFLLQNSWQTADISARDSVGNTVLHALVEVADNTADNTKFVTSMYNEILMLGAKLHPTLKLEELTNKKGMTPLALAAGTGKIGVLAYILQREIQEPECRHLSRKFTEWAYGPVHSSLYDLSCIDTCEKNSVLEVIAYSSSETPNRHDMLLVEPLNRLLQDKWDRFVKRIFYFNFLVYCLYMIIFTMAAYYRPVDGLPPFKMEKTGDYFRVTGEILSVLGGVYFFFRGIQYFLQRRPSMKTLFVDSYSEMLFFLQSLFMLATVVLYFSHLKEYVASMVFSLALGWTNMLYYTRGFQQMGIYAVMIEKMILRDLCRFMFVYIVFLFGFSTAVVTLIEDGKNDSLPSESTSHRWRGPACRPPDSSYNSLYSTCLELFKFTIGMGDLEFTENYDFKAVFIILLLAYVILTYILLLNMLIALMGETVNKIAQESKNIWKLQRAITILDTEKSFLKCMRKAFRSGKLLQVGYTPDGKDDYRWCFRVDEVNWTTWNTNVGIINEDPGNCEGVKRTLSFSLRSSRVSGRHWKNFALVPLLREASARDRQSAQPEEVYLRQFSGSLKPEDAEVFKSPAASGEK
Protocol: as §1
(§3) Intracellular calcium [Ca]i levels were assessed using the calcium 5 kit from Molecular Devices (# R8186, Sunnyvale, CA, USA) on a FlexStation 3 Microplate Reader (Molecular Devices, Sunnyvale, CA, USA). […] Probenecid (cat # 50027; Biotium) which helps to prevent expulsion of calcium indicator from the cells was added to a final concentration of 1.25 mM. 90 µL of the dye were loaded into each well of the plate and incubated for 1 h before reading in the FlexStation 3 at 37 °C. Fluorescence was recorded every 2 s (λ excitation = 485 nm, λ emission = 525 nm) for 5 min. After 1 min of baseline recording, 20 µL of the drug, dissolved in HBSS with 1% dimethyl sulfoxide (DMSO) (cat # D2650; Sigma-Aldrich, Melbourne, Australia) was added (final DMSO concentration was 0.1% in well).
as §2

human TRPA1 = target: T2, human TRPA1 (Homo sapiens, UniProt O75762); experiment: Calcium 5 dye [Ca]i assay in HEK-293 Flp-In T-REx cells expressing TRPA1 (agonist response); type: cell-based; conditions: for Elevation of [Ca]i in HEK-293 TRPA1 cells compared with HEK-293 EV cells: 10 µM (cinnamaldehyde 300 µM); for Change of Ca5 fluorescence, Mean ± SEM, TRPA1 (10 µM): HEK-293 TRPA1 cells, percentage of predrug baseline; for TRPA1 activation at the highest concentration tested / TRPA1 response compared with the highest concentration of cinnamaldehyde (300 µM) / TRPA1 response, Mean± SEM (N): 30 µM; for TRPA1 response, Mean± SEM (N): one-way ANOVA comparison with cinnamaldehyde 300 µM; for [Ca]i response (change in fluorescence), individual replicates: sheet Figure 3(E)
T2 construct: Life Technologies (cells); host or cells: Flp-In T-REx HEK-293
T2 sequence (O75762 whole entry): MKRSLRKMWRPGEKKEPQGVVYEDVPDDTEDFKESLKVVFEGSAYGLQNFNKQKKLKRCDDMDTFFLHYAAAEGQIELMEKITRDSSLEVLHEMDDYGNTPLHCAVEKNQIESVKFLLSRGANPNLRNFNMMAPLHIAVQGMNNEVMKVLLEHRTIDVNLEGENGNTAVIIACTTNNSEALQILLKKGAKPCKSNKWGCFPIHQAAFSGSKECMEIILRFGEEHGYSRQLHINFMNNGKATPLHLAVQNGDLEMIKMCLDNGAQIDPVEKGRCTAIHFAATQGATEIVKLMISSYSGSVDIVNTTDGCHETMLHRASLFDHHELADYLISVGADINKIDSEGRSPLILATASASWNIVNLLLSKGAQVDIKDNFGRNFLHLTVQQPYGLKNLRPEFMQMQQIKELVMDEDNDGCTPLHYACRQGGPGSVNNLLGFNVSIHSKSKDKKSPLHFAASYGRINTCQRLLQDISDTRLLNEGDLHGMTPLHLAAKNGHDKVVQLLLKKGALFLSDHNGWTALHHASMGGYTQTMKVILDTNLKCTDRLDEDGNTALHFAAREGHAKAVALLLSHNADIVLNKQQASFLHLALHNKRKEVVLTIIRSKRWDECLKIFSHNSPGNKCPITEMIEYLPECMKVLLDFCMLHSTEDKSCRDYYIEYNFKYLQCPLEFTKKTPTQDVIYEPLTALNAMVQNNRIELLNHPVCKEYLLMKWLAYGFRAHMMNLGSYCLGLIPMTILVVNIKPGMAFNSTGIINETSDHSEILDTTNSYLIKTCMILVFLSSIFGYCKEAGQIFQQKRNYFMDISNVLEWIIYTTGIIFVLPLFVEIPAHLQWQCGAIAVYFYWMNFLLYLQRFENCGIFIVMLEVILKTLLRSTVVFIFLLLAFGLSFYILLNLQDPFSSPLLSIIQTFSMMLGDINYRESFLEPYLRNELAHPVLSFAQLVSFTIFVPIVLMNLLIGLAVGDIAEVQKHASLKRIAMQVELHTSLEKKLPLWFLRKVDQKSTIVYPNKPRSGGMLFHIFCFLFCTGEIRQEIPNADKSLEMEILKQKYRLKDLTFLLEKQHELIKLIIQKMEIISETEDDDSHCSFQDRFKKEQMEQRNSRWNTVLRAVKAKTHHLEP
Protocol: as §1, §3, §2

CCCCC/C=C\C/C=C\C/C=C\C/C=C\CCCCOC(CO)CO [2-AG ether, 2-arachidonoylglycerol ether]
Change of Ca5 fluorescence, Mean ± SEM, EV (10 µM) (HEK-293 EV cells): 8 ± 2% | Elevation of [Ca]i in HEK-293 TRPV1 cells compared with HEK-293 EV cells (human TRPV1): did not produce a notable change | Change of Ca5 fluorescence, Mean ± SEM, TRPV1 (10 µM) (human TRPV1): 39 ± 24% | TRPV1 response, Mean± SEM (N) (human TRPV1): 63± 56 | Emax ± SEM % TRPV1 (30 µM) (human TRPV1; highest tested concentration (30 µM) or derived from concentration-response curves (DHEA, AEA, NADA, capsaicin)): 63 ± 23% | Change in Ca5 fluorescence, individual experiments (CRC raw data) (human TRPV1; log concentration -4.52288 (M)): 153.653 and 87.759 and 41.6511 and 12.8054 and 5.8133 and 75.505 | Change in Ca5 fluorescence, individual experiments (CRC raw data) (human TRPV1; log concentration -5 (M)): 155.318 and 30.8581 and 23.9661 and 3.174 and 0.3103 and 20.3939 | Change in Ca5 fluorescence, individual experiments (CRC raw data) (human TRPV1; log concentration -5.52288 (M)): 16.5791 and 3.033 and 7.578 and 1.888 and 0.6433 and 11.7313 | Change in Ca5 fluorescence, individual experiments (CRC raw data) (human TRPV1; log concentration -6 (M)): 7.918 and 3.6522 and 9.605 and 2.557 and 2.906 and 1.314 | Change in Ca5 fluorescence, individual experiments (CRC raw data) (human TRPV1; log concentration -6.52288 (M)): 3.121 and 1.724 and 12.4457 and 2.326 and 0.7415 and 2.165 | Change in Ca5 fluorescence, individual experiments (CRC raw data) (human TRPV1; log concentration -7 (M)): 2.256 and 4.13 and 8.499 and 1.026 and 2.717 and 1.813 | Elevation of [Ca]i in HEK-293 TRPA1 cells compared with HEK-293 EV cells (human TRPA1): did not produce a change | Change of Ca5 fluorescence, Mean ± SEM, TRPA1 (10 µM) (human TRPA1): 91 ± 40% | TRPA1 activation at the highest concentration tested (human TRPA1): activated TRPA1 | TRPA1 response compared with the highest concentration of cinnamaldehyde (300 µM) (human TRPA1): significantly smaller | TRPA1 response, Mean± SEM (N) (human TRPA1): 223 ± 60 | [Ca]i response (change in fluorescence), individual replicates (human TRPA1; concentration -4.52288 (log)): 16.8824 and 397.614 and 5.373 and 104.863 and 520.454 and 293.014 | [Ca]i response (change in fluorescence), individual replicates (human TRPA1; concentration -5 (log)): 6.439 and 205.99 and 4.156 and 6.3216 and 170.328 and 155.005 | [Ca]i response (change in fluorescence), individual replicates (human TRPA1; concentration -5.52288 (log)): 2.263 and 3.295 and 6.759 and 5.886 and 11.1841 and 49.3437 | [Ca]i response (change in fluorescence), individual replicates (human TRPA1; concentration -6 (log)): 11.4488 and 1.879 and 1.228 and 4.253 and 4.557 and 3.684 | [Ca]i response (change in fluorescence), individual replicates (human TRPA1; concentration -6.52288 (log)): 9.48 and 8.5131 and 4.1 and 4.971 and 4.357 and 3.125 | [Ca]i response (change in fluorescence), individual replicates (human TRPA1; concentration -7 (log)): 0.2809 and 4.873 and 5.959 and 5.37 and 6.745 and 2.857 | Emax ± SEM % TRPA1 (30 µM) (human TRPA1; highest tested concentration (30 µM) or derived from concentration-response curves (cinnamaldehyde)): 223 ± 87%

CCCCC/C=C\C/C=C\C/C=C\C/C=C\CCCC(=O)OC(CO)CO [2-AG, 2-arachidonoylglycerol]
Change of Ca5 fluorescence, Mean ± SEM, EV (10 µM) (HEK-293 EV cells): 4 ± 2% | Elevation of [Ca]i in HEK-293 TRPV1 cells compared with HEK-293 EV cells (human TRPV1): did not produce a notable change | Change of Ca5 fluorescence, Mean ± SEM, TRPV1 (10 µM) (human TRPV1): 30 ± 12% | TRPV1 response, Mean± SEM (N) (human TRPV1): 78± 56 | Emax at 30 µM (human TRPV1; HEK293, read-out: Emax ± SEM % TRPV1 (30 µM)): 78 ± 26% | Change in Ca5 fluorescence, individual experiments (CRC raw data) (human TRPV1; log concentration -4.52288 (M)): 27.3329 and 112.734 and 162.217 and 44.4524 and 123.109 and 0.2559 | Change in Ca5 fluorescence, individual experiments (CRC raw data) (human TRPV1; log concentration -5 (M)): 7.357 and 86.123 and 26.0517 and 22.0298 and 37.7022 and 3.715 | Change in Ca5 fluorescence, individual experiments (CRC raw data) (human TRPV1; log concentration -5.52288 (M)): 1.982 and 59.8686 and 3.625 and 7.304 and 11.7183 and 5.763 | Change in Ca5 fluorescence, individual experiments (CRC raw data) (human TRPV1; log concentration -6 (M)): 3.178 and 11.4308 and 1.524 and 2.296 and 1.51 and 5.0359 | Change in Ca5 fluorescence, individual experiments (CRC raw data) (human TRPV1; log concentration -6.52288 (M)): 2.799 and 5.91 and 1.131 and 13.0737 and 2.188 and 2.217 | Change in Ca5 fluorescence, individual experiments (CRC raw data) (human TRPV1; log concentration -7 (M)): 3.868 and 2.533 and 1.007 and 9.752 and 4.95 and 2.563 | Elevation of [Ca]i in HEK-293 TRPA1 cells compared with HEK-293 EV cells (human TRPA1): did not produce a change | Change of Ca5 fluorescence, Mean ± SEM, TRPA1 (10 µM) (human TRPA1): 6 ± 1% | TRPA1 activation at the highest concentration tested (human TRPA1): activated TRPA1 | TRPA1 response compared with the highest concentration of cinnamaldehyde (300 µM) (human TRPA1): significantly smaller | TRPA1 response, Mean± SEM (N) (human TRPA1): 109 ± 60 | Emax at 30 µM (human TRPA1; HEK293, read-out: Emax ± SEM % TRPA1 (30 µM)): 109 ± 68% | [Ca]i response (change in fluorescence), individual replicates (human TRPA1; concentration -4.52288 (log)): 14.9622 and 7.179 and 134.366 and 9.127 and 431.447 and 54.77 | [Ca]i response (change in fluorescence), individual replicates (human TRPA1; concentration -5 (log)): 4.64 and 4.022 and 10.3661 and 3.3919 and 6.211 and 4.731 | [Ca]i response (change in fluorescence), individual replicates (human TRPA1; concentration -5.52288 (log)): 6.153 and 3.314 and 8.987 and 3.008 and 4.615 and 3.811 | [Ca]i response (change in fluorescence), individual replicates (human TRPA1; concentration -6 (log)): 6.477 and 4.178 and 4.8275 and 2.1815 and 3.7711 and 3.334 | [Ca]i response (change in fluorescence), individual replicates (human TRPA1; concentration -6.52288 (log)): 5.571 and 5.908 and 5.712 and 6.071 and 7.256 and 4.936 | [Ca]i response (change in fluorescence), individual replicates (human TRPA1; concentration -7 (log)): 4.596 and 9.253 and 10.2641 and 5.393 and 9.276 and 4.379
